Source: BigSolDB 2.1

C(=Cc1ccc(-c2nc3ccccc3o2)cc1)c1ccc(-c2nc3ccccc3o2)cc1
solubility (mole fraction)
Details	323.15 K	338.15 K	353.15 K	368.15 K	383.15 K
in DMF	3.02e-06	7.12e-06	1.04e-05	1.57e-05	2.63e-05
in NMP	3.18e-06	7.96e-06	1.37e-05	2.44e-05	3.99e-05
in chlorobenzene	8.89e-06	2.1e-05	3.65e-05	4.9e-05	5.59e-05
in water	1.3e-07	3.39e-07	5.56e-07	6.6e-07	–
